# Laboratory results as given in US20090304692A1, “TRIAZINE COMPOUNDS AS PI3 KINASE AND MTOR INHIBITORS” (Wyeth, priority 2008, published 2009).
# pIC50: −log10 of the molar value. Values joined by “and” are separate entries in the source; they are usually repeats but may differ in a detail not shown here. Equal values may be shown once. Read-outs that look alike come from different tables or passages of the source.
# Experiments:
# [1] = molecular target: Human mTOR (FLAG-TOR) (Homo sapiens, UniProt P42345); assay: mTOR kinase assay (DELFIA format, purified enzyme); type: biochemical
# Human mTOR (FLAG-TOR), sequence (P42345 1360-2549 limits assumed): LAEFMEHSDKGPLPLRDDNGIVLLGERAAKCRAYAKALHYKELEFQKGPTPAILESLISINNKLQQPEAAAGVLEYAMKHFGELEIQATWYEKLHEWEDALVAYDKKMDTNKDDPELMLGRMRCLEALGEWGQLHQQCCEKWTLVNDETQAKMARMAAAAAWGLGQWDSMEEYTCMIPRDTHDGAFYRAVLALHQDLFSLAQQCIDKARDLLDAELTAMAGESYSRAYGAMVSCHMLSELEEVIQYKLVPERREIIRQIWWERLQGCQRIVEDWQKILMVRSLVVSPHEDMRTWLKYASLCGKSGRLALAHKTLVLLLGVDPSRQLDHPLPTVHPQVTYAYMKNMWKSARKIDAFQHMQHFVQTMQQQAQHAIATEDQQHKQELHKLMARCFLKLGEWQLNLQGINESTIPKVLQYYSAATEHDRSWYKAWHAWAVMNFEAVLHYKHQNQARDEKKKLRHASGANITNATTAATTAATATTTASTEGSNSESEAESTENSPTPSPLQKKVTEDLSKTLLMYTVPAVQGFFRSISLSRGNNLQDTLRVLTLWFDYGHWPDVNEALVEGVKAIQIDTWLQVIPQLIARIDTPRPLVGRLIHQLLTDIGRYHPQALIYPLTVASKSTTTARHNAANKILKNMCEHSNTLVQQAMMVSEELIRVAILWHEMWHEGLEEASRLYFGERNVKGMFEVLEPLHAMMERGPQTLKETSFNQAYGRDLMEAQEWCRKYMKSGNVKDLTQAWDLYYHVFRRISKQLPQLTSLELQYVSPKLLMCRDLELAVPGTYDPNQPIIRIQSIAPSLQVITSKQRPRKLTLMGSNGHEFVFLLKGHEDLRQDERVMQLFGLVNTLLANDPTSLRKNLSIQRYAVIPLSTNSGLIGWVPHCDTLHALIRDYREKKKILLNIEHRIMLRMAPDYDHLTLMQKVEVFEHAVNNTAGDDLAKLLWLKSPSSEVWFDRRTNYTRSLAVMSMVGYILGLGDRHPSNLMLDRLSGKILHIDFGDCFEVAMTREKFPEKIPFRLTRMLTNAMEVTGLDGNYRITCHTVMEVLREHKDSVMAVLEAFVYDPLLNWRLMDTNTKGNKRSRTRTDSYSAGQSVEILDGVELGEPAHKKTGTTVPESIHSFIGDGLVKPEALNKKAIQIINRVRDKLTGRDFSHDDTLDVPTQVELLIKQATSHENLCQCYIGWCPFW
# [2] = system: human breast MDA-MB-361 tumor cell line; assay: In vitro cell culture growth assay (MTS), MDA-MB-361; type: cell-based; settings: Homo sapiens
# [3] = system: human prostate PC3-mm2 tumor cell line; assay: In vitro cell culture growth assay (MTS), PC3-mm2; type: cell-based; settings: Homo sapiens, PC3MM2, 72 h
# [4] = molecular target: PI3K-α (Homo sapiens, UniProt P42336); assay: PI3K-alpha fluorescence polarization assay; settings: read-out: IC50 PI3Kα
# PI3K-α, sequence (P42336 whole entry, species assumed): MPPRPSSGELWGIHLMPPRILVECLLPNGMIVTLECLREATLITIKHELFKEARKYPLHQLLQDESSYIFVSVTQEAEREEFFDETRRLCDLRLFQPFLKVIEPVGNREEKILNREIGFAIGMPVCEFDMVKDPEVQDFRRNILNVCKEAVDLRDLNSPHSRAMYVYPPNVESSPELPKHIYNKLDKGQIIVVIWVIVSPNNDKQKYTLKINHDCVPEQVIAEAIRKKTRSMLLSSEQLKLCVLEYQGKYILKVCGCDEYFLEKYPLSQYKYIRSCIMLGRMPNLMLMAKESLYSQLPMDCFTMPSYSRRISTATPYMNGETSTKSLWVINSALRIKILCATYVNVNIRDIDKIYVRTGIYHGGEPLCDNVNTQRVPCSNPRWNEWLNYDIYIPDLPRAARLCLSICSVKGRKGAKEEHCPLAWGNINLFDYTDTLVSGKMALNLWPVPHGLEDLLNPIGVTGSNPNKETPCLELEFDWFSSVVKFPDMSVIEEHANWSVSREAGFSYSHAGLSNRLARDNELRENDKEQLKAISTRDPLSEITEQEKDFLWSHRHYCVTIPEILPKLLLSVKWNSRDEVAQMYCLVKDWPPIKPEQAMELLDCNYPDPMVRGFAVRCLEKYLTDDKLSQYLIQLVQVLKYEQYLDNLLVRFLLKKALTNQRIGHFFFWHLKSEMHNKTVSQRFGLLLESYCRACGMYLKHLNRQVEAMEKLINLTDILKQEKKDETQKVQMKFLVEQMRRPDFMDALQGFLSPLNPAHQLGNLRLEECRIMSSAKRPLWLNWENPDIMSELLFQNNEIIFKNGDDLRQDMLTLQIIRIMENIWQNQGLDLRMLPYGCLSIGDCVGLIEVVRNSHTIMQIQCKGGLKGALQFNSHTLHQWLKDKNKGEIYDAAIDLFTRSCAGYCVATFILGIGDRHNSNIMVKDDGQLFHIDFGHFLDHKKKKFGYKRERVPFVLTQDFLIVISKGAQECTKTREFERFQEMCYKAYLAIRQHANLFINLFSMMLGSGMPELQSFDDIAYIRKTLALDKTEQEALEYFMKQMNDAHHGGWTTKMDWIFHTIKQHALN
# PI3K-α, sequence (P27986 whole entry partner, species assumed): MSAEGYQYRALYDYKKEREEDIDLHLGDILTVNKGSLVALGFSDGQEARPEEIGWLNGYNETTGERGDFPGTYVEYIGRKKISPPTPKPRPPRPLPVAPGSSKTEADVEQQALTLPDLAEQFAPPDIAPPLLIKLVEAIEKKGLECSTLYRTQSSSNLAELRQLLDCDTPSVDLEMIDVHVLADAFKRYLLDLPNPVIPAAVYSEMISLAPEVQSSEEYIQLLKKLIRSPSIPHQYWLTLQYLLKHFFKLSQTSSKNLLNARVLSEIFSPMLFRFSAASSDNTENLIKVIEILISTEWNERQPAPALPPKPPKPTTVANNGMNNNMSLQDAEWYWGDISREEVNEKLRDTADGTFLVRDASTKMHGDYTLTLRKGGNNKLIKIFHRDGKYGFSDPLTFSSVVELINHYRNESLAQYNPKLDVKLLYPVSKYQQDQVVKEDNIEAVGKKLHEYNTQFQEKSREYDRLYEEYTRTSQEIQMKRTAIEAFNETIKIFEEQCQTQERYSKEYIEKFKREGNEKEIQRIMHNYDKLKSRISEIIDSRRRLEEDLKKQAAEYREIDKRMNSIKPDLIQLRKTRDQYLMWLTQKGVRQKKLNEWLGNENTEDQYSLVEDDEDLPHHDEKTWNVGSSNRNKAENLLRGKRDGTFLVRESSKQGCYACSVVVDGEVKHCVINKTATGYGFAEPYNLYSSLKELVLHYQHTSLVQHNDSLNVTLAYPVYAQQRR
# [5] = molecular target: PI3K-γ (Homo sapiens, UniProt P48736); assay: PI3K-gamma fluorescence polarization assay; settings: read-out: IC50 PI3Kγ
# PI3K-γ, sequence (P48736 whole entry, species assumed): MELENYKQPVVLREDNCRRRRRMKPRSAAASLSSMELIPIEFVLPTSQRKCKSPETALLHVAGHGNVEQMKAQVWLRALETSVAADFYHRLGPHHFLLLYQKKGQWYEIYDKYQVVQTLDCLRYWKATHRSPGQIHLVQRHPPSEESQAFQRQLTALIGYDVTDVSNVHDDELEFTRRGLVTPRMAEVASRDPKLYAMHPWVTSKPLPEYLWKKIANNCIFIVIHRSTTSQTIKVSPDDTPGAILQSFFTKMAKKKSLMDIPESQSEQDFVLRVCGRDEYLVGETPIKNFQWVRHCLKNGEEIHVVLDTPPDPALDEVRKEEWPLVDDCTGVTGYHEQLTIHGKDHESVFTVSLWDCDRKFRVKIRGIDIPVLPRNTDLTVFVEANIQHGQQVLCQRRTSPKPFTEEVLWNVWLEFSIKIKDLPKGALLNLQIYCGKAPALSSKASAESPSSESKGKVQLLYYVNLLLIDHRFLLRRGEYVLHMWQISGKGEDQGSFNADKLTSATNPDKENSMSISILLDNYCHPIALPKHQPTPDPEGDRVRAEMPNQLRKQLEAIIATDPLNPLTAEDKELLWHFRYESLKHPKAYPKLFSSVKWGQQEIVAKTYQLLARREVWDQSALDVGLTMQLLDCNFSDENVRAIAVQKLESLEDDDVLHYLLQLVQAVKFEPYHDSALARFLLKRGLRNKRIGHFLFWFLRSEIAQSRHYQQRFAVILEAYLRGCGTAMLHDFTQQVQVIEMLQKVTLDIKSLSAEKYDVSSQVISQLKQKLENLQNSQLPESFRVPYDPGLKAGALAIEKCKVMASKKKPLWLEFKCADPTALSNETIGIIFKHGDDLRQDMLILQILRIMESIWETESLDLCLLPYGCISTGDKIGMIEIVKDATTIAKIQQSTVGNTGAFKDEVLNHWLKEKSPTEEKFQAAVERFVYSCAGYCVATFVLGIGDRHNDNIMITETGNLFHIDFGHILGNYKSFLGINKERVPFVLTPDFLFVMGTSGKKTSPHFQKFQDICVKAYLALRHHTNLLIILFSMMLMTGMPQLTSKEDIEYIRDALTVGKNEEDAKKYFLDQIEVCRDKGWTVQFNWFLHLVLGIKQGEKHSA
# [6] = MDA-MB-361, 72 h, MTS cell growth assay, three days after drug treatment, read-out: IC50 MDA-MB-361
# [7] = MTS cell growth assay, three days after drug treatment, read-out: IC50 PC3-mm2
# [8] = 72 h, MTS cell growth assay, three days after drug treatment, MDA-MB-361 cells, read-out: IC50 MDA-MB-361
# [9] = MTS cell growth assay, three days after drug treatment, PC3-mm2 cells, read-out: IC50 PC3-mm2
# [10] = 72 h, MDA-MB-361 cells, MTS, three days after drug treatment, read-out: IC50 MDA-MB-361
# [11] = PC3-mm2 cells, MTS, three days after drug treatment, read-out: IC50 PC3-mm2
# [12] = MDA-MB-361, 72 h, MTS cell growth assay, three days after drug treatment, MDA-MB-361 cells, read-out: IC50 MDA-MB-361
pIC50 ([1]; read-out: IC50 mTOR),pIC50 [4],pIC50 [5],"pIC50 [2, 6]","pIC50 [3, 7]",Structure (SMILES),"pIC50 [3, 9]",further results
8.89,8.52,7.54,,,"O=C(Nc1ccncc1)Nc1ccc(-c2nc(N3CCOCC3)nc(N3CCOCC3)n2)cc1 [Example 1, 1-[4-(4,6-dimorpholin-4-yl-1,3,5-triazin-2-yl)phenyl]-3-pyridin-4-ylurea]",,"pIC50 ([2]; MDA-MB-361, 72 h, read-out: IC50 MDA-MB-361, MTS cell growth assay, three days after drug treatment): 7.35; pIC50 ([3]; read-out: IC50 PC3-mm2, MTS cell growth assay, three days after drug treatment): 7.37"
6.80,7.17,6.50,6.40,6.02,"CCCCc1nc(-c2ccc(NC(=O)Nc3ccc(C(=O)N4CCC(Cc5ccccc5)CC4)cc3)cc2)nc(N2CCOCC2)n1 [Example 270, 1-{4-[(4-benzylpiperidin-1-yl)carbonyl]phenyl}-3-[4-(4-butyl-6-morpholin-4-yl-1,3,5-triazin-2-yl)phenyl]urea]",,
8.32,8.00,7.06,6.88,6.67,"O=C(Nc1ccc(O)cc1)Nc1ccc(-c2nc(N3CCOCC3)nc(N3CCOCC3)n2)cc1 [Example 54, 1-[4-(4,6-dimorpholin-4-yl-1,3,5-triazin-2-yl)phenyl]-3-(4-hydroxyphenyl)urea]",,
7.82,7.72,6.63,6.39,6.16,"CC(C)(C)OC(=O)N1CC(CNc2nc(-c3ccc(NC(=O)Nc4ccncc4)cc3)nc(N3CCOCC3)n2)C1 [Example 104, 3-({4-Morpholin-4-yl-6-[4-(3-pyridin-4-yl-ureido)-phenyl]-[1,3,5]triazin-2-ylamino}-methyl)-azetidine-1-carboxylic acid tert-butyl ester]",,
7.78,7.60,6.94,6.97,6.49,"CCc1nc(-c2ccc(NC(=O)Nc3ccc(C(=O)NCc4ccncc4)cc3)cc2)nc(N2CCOCC2)n1 [Example 321, 4-({[4-(4-ethyl-6-morpholin-4-yl-1,3,5-triazin-2-yl)phenyl]carbamoyl}amino)-N-(pyridin-4-ylmethyl)benzamide]",,
8.05,8.10,6.57,7.92,6.24,"CCCCc1nc(-c2ccc(NC(=O)Nc3ccc(C(=O)Nc4ccc(N5CCN(C)CC5)cc4)cc3)cc2)nc(N2CCOCC2)n1 [Example 253, 4-({[4-(4-butyl-6-morpholin-4-yl-1,3,5-triazin-2-yl)phenyl]carbamoyl}amino)-N-[4-(4-methylpiperazin-1-yl)phenyl]benzamide]",,
7.68,7.89,7.46,7.08,6.88,"CCc1nc(-c2ccc(NC(=O)Nc3ccc(N4CCN(C)CC4)cc3)cc2)nc(N2CCOCC2)n1 [Example 296, 1-[4-(4-ethyl-6-morpholin-4-yl-1,3,5-triazin-2-yl)phenyl]-3-[4-(4-methylpiperazin-1-yl)phenyl]urea]",,
8.70,8.55,7.52,,,"CCN1CCN(C(=O)c2ccc(NC(=O)Nc3ccc(-c4nc(N5CCOCC5)nc(N5CC6CCC5CO6)n4)cc3)cc2)CC1 (stereo not shown) [Example 812, 1-{4-[(4-ethylpiperazin-1-yl)carbonyl]phenyl}-3-{4-[4-morpholin-4-yl-6-(2-oxa-5-azabicyclo[2.2.2]oct-5-yl)-1,3,5-triazin-2-yl]phenyl}urea]",,"pIC50 ([2]; MDA-MB-361, 72 h, MDA-MB-361 cells, MTS, three days after drug treatment, read-out: IC50 MDA-MB-361): 8.52; pIC50 [3, 11]: 7.64"
7.41,6.66,5.61,,,"CCOC(=O)N1CCC(Oc2nc(-c3ccc(NC(=O)Nc4ccncc4)cc3)nc(N3CCOCC3)n2)CC1 [Example 689, ethyl 4-[(4-morpholin-4-yl-6-{4-[(pyridin-4-ylcarbamoyl)amino]phenyl}-1,3,5-triazin-2-yl)oxy]piperidine-1-carboxylate]",7.07,"pIC50 [2, 8]: 7.28"
7.77,7.55,7.24,,,"O=C(Nc1ccc(C(=O)O)cc1)Nc1ccc(-c2nc(-c3ccccc3)nc(N3CCOCC3)n2)cc1 [Example 541, 4-({[4-(4-morpholin-4-yl-6-phenyl-1,3,5-triazin-2-yl)phenyl]carbamoyl}amino)benzoic acid]",5.75,"pIC50 [2, 12]: 6.02"
9.00,7.58,6.94,,,"COC(=O)c1ccc(NC(=O)Nc2ccc(-c3nc(N4CCOCC4)nc(N4CCOC[C@@H]4C)n3)cc2)cc1 [Example 615, methyl 4-{[(4-{4-[(3S)-3-methylmorpholin-4-yl]-6-morpholin-4-yl-1,3,5-triazin-2-yl}phenyl)carbamoyl]amino}benzoate]",6.91,"pIC50 [2, 8]: 7.06"
7.46 and 8.44,8.00,7.15,6.75,6.61,"O=C(Nc1ccncc1)Nc1ccc(-c2nc(CCCO)nc(N3CCOCC3)n2)cc1 [Example 279, 1-{4-[4-(3-hydroxypropyl)-6-morpholin-4-yl-1,3,5-triazin-2-yl]phenyl}-3-pyridin-4-ylurea]",6.61,pIC50 ([4]; listed as 736): 8.02; pIC50 ([5]; listed as 736): 7.27
8.22,8.22,7.28,7.35,7.37,"O=C(Nc1ccc(F)cc1)Nc1ccc(-c2nc(N3CCOCC3)nc(N3CCOCC3)n2)cc1 [Example 6, 1-[4-(4,6-dimorpholin-4-yl-1,3,5-triazin-2-yl)phenyl]-3-(4-fluorophenyl)urea]",,

Structure (SMILES),pIC50 ([1]; read-out: IC50 mTOR),pIC50 [4],pIC50 [5],"pIC50 [2, 6]","pIC50 [3, 7]","pIC50 [3, 9]",further results
"O=C(Nc1ccc(-c2nc(N3CCOCC3)nc(N3C4CCC3COC4)n2)cc1)Nc1ccnc(Cl)c1 [Example 746, 1-(2-chloropyridin-4-yl)-3-{4-[4-morpholin-4-yl-6-(3-oxa-8-azabicyclo[3.2.1]oct-8-yl)-1,3,5-triazin-2-yl]phenyl}urea]",8.90,7.63,7.00,,,6.93,"pIC50 [2, 8]: 7.03"
"O=C(Nc1ccc(C(=O)NCCO)cc1)Nc1ccc(-c2nc(N3CCOCC3)nc(N3C4CCC3COC4)n2)cc1 [Example 699, N-(2-hydroxyethyl)-4-[({4-[4-morpholin-4-yl-6-(3-oxa-8-azabicyclo[3.2.1]oct-8-yl)-1,3,5-triazin-2-yl]phenyl}carbamoyl)amino]benzamide]",9.52,8.30,7.20,,,7.40,"pIC50 [2, 8]: 7.44"
"CN(C)CCN(C)C(=O)c1ccc(NC(=O)Nc2ccc(-c3nc(N4CCOCC4)nc(N4C5CCCC4COC5)n3)cc2)cc1 [Example 795, N-[2-(dimethylamino)ethyl]-N-methyl-4-[({4-[4-morpholin-4-yl-6-(3-oxa-9-azabicyclo[3.3.1]non-9-yl)-1,3,5-triazin-2-yl]phenyl}carbamoyl)amino]benzamide]",9.37,8.57,7.58,,,,"pIC50 [2, 10]: > 8.49; pIC50 [3, 11]: 8.00"
"O=C(Nc1ccc(C(=O)NCCN2CCCC2)cc1)Nc1ccc(-c2nc(N3CCOCC3)nc(N3C4CCCC3COC4)n2)cc1 [Example 798, 4-[({4-[4-morpholin-4-yl-6-(3-oxa-9-azabicyclo[3.3.1]non-9-yl)-1,3,5-triazin-2-yl]phenyl}carbamoyl)amino]-N-(2-pyrrolidin-1-ylethyl)benzamide]",9.35,8.39,7.36,,,,"pIC50 [2, 10]: 8.52; pIC50 [3, 11]: 7.62"
"O=C(Nc1ccc(F)cc1)Nc1ccc(-c2nc(N3CCOCC3)nc(N3C4CCC3COC4)n2)cc1 [Example 37, 1-(4-fluorophenyl)-3-{4-[4-morpholin-4-yl-6-(3-oxa-8-azabicyclo[3.2.1]oct-8-yl)-1,3,5-triazin-2-yl]phenyl}urea]",,7.41,6.81,7.01,6.75,6.75,"pIC50 ([1]; IC50 mTOR): 8.71; pIC50 [2, 12]: 7.01; pIC50 ([4]; listed as 672): 7.40; pIC50 ([5]; listed as 672): 6.81"
"CN(C)CCOc1ccc(NC(=O)Nc2ccc(-c3nc(N4CCOCC4)nc(N4C5CCC4COC5)n3)cc2)cc1 [Example 266, 1-{4-[2-(dimethylamino)ethoxy]phenyl}-3-{4-[4-morpholin-4-yl-6-(3-oxa-8-azabicyclo[3.2.1]oct-8-yl)-1,3,5-triazin-2-yl]phenyl}urea]",8.77 and 8.73,7.80,7.03,,,> 7.51,"pIC50 [2, 8]: > 7.51; pIC50 ([4]; listed as 729): 7.84; pIC50 ([5]; listed as 729): 7.00"
"Cc1ccc(NC(=O)Nc2ccc(-c3nc(N4CCOCC4)nc(N4C5CCC4COC5)n3)cc2)cc1 [Example 41, 1-(4-methylphenyl)-3-{4-[4-morpholin-4-yl-6-(3-oxa-8-azabicyclo[3.2.1]oct-8-yl)-1,3,5-triazin-2-yl]phenyl}urea]",8.89,7.16,6.91,6.78,6.52,6.52,"pIC50 [2, 12]: 6.78; pIC50 ([4]; listed as 676): 7.16"
